The values below come from patent US9603835B2, “Use of 3-(R)-[3-(2-methoxyphenylthio)-2-(S)-methylpropyl]amino-3,4-dihydro-2H-1,5-benzoxathiepine for treating cancer and in particular for preventing and/or treating cancer metastases” (PIERRE FABRE MEDICAMENT, priority 2011, dated 2017).

pIC50: −log10 of the molar value.

The target in series [1] is T1, Nav1.5 voltage-gated sodium channels (Homo sapiens, UniProt Q14524).
T1 construct: said cells express, inter alia, functional Nav1.5 voltage-gated sodium channels; endogenous in cells; host or cells: MDA-MB-231
Description: Whole-cell patch-clamp, repeated depolarisation protocol, MDA-MB-231 cells. Type of series: cell-based. From the text:
Merely as an illustration, the inventors chose to use the MDA-MB-231 line, which is a highly metastatic human mammary adenocarcinoma line, in the experiment. […] However, the pharmacological tools in question are not suitable for precise characterisation of the nature of the Nav1.5 sodium current involved in the metastatic process. […] For this reason, the inventors consider that 3-(R)-[3-(2-methoxyphenylthio)-2-(S)-methyl-propyl]amino-3,4-dihydro-2H-1,5-benzoxathiepine has anti-metastatic properties in relation to cancer cells expressing the Nav1.5 channel. As such, it is important to note that numerous types of metastatic cancer have been reported as expressing the Nav1.5 channel.
Cell culture: the MDA-MB-231 cells are cultured in a Dulbecco's modified Eagle's medium, (Life Technologies LTD, Paisley, UK) supplemented with 4 mM L-glutamine and 10% foetal calf serum. The cells are inoculated in 100 mm culture dishes and placed in an incubator at 37° C., 100% moisture and 5% CO2.
Electrophysiological measurements in “whole cell” configuration: the patch pipette (resistance 5-15 MΩ) contains a solution of: 5 mM NaCl, 145 mM CsCl, 2 mM MgCl2, 1 mM CaCl2, 10 mM HEPES and 11 mM EGTA, the pH is adjusted to 7.4 with CsOH. The reference electrode is immersed in the extracellular medium consisting of a solution of: 140 mM NaCl, 4 mM KCl, 2 mM MgCl2, 11 mM glucose, 10 mM HEPES, the pH is adjusted to 7.4 with NaOH. These two electrodes are connected to an Axopatch 200B amplifier (Axon Instrument). The currents are filtered using a Bessel filter at a frequency of 5 kHz and are sampled at a frequency of 5 kHz using the Digidata interface (1200). The data acquisition and analysis are performed using pClamp software (Axon Instrument). The holding potential is set to −110 mV to record the maximum Nav channel activity.
Two protocols were used: • 1/ “Voltage-dependent current INa” protocol for observing the maximum amplitude of INa according to the voltage applied. Depolarisations in 5 mV stages are performed at a frequency of 0.2 Hz, from −110 to +60 mV. […]

The nature of series [2]: Cytotoxicity. Type of series: cell-based.
Series [3] in a line: In vivo effect on normal cardiac function. To be noted: even at high doses.

T1 sequence (Q14524 1-2016 isoform Q14524-4): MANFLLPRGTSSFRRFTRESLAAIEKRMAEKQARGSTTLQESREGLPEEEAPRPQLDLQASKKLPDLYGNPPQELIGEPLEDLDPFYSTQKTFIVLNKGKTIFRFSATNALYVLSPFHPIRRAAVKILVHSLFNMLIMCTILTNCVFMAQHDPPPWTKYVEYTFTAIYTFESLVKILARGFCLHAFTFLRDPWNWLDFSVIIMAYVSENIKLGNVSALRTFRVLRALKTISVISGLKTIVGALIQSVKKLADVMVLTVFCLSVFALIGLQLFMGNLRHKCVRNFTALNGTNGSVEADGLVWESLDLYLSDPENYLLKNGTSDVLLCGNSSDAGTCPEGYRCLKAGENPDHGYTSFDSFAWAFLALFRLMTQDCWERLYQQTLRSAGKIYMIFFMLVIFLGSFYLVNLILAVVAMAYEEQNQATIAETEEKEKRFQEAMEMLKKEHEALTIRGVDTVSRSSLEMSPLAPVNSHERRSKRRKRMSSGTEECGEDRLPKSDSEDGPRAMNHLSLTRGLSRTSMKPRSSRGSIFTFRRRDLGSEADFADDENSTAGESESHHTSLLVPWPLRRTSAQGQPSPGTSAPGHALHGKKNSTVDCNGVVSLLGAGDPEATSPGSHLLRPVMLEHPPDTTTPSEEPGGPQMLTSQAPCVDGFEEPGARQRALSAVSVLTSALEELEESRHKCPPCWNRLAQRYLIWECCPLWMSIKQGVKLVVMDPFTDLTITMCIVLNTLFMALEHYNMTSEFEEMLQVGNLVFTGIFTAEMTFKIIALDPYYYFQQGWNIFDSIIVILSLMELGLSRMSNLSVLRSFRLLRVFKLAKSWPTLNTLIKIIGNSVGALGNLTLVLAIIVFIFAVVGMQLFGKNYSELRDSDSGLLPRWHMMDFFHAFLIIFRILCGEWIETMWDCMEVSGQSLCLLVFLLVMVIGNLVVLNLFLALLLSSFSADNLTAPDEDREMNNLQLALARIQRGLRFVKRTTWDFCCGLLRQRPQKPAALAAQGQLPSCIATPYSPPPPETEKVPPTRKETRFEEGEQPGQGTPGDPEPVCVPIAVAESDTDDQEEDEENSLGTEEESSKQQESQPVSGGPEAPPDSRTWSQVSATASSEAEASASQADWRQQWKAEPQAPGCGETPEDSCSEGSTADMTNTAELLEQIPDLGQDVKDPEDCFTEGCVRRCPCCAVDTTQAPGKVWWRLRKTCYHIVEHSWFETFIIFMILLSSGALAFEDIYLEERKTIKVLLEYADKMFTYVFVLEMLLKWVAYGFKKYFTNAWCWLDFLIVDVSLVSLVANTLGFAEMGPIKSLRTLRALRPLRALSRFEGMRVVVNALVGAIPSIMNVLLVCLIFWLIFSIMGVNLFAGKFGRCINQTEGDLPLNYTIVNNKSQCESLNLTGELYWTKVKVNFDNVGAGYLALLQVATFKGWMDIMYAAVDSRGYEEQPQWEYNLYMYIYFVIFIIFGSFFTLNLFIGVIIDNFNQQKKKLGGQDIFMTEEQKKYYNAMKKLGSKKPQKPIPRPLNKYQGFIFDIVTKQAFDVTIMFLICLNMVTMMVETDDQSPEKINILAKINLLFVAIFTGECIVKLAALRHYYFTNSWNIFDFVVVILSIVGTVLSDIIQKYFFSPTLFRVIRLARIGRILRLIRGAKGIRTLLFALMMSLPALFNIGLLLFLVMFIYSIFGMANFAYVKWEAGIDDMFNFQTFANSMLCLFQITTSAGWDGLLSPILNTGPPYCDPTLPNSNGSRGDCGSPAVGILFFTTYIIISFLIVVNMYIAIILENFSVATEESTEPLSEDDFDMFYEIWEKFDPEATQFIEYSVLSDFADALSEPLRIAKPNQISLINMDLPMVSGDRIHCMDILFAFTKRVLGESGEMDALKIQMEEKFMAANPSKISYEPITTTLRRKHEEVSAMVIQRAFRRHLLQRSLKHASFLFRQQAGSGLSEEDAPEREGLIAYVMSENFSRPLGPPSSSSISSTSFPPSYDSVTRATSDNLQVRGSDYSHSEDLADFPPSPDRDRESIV

In the case of `COc1ccccc1SC[C@@H](C)CN[C@@H]1COc2ccccc2SC1` [3-(R)-[3-(2-methoxyphenylthio)-2-(S)-methyl-propyl]amino-3,4-dihydro-2H-1,5-benzoxathiepine], the pIC50 – broadly, the negative decadic logarithm of the IC50, by convention in mol/L – in series [1] (MDA-MB-231 cells, whole cell patch-clamp, concentration-dependent, read-out: reduction of the metastatic Nav1.5 current (IC50)) was 5.82. Besides, the cytotoxicity result in series [2] is “not cytotoxic”. In addition, the “interference with normal cardiac function” value in series [3] was “does not interfere with normal cardiac function”.
With `NC1=N[C@H](O)[C@H]2[C@H]3O[C@]4(O)O[C@@H]([C@@H](O)[C@@]2(N1)[C@@H]4O)[C@]3(O)CO` [tetrodotoxin], the peak current inhibition stood at 30±7% in series [1] (1 µM) and 54±8% in series [1] (5 µM).
